Data on 27 compounds can be found in ChEMBL document CHEMBL5108042, “Design and synthesis of eugenol/isoeugenol glycoconjugates and other analogues as antifungal agents against Aspergillus fumigatus” (RSC Med Chem, 2022).

Molecules are shown by their SMILES. Converted amounts (≈) assume the structure as drawn. The source made the active and inactive calls. No cut-off for these calls is given here. Bounds are passed on as bounds.

The test system of data set [1] is Aspergillus fumigatus. As to the kind of experiment: Antifungal activity against Aspergillus fumigatus ATCC 46645 assessed as inhibition of fungal growth incubated for 5 days by CLSI protocol based microbroth dilution method. Format: functional, organism-based. The settings on record: ATCC 46645, 120 h. In general terms: In broth dilution the organism is exposed to a series of concentrations in liquid medium.

Data set [2] relates to Aspergillus fumigatus. The data set is described as follows: Antifungal activity against Aspergillus fumigatus ATCC 46645 assessed as inhibition of conidial and mycelial growth incubated for 5 days by CLSI protocol based microbroth dilution method. Format: functional. The settings on record: ATCC 46645, 120 h, time 5 day.
Data set [3] is described as follows: Cytotoxicity against human L132 cells assessed as inhibition of cell growth. Format: toxicity, cell-based.
For data set [4], the system named is Aspergillus fumigatus. The data set is described as follows: Antifungal activity against Aspergillus fumigatus ATCC 46645 assessed as decrease in DHN-melanin content by measuring absorption spectra at optical density 275 nm at IC50 concentration incubated for 5 days by UV-vis spectrophotometric analysis. Format: functional. Particulars: time 5 day.
Data set [5] deals with Aspergillus fumigatus. As to the kind of experiment: Antifungal activity against Aspergillus fumigatus ATCC 46645 assessed as smooth conidial surface with absence of protrusions at IC50 concentration by scanning electron microscopic analysis. The class given is functional, organism-based.
Data set [6] relates to Aspergillus fumigatus. The data set is described as follows: Antifungal activity against Aspergillus fumigatus ATCC 46645 assessed as decrease in number of conidia at IC50 concentration by scanning electron microscopic analysis. The class given is functional, organism-based.
Data set [7] concerns Aspergillus fumigatus. As to the kind of experiment: Antifungal activity against Aspergillus fumigatus ATCC 46645 assessed as absence of melanin layer at IC50 concentration by transmission electron microscopic analysis. Format: functional, organism-based.
For another data set, the system named is Cell membrane. As to the kind of experiment: Induction of cell membrane disruption in Aspergillus fumigatus ATCC 46645 assessed as accumulation of cytoplasmic content at IC50 concentration by transmission electron microscopic analysis. The class given is subcellular.
Data set [8] in a line: Selectivity index, ratio of CC50 for cytotoxicity against human L-132 cells assessed as inhibition of cell growth to IC50 for antifungal activity against Aspergillus fumigatus ATCC 46645 assessed as inhibition of fungal growth. The class given is toxicity, cell-based. The settings on record: read-out: Ratio IC50.
A short description of data set [9]: Cytotoxicity against human L132 cells assessed as inhibition of cell growth incubated for 24 hrs by MTT assay. The class given is toxicity, cell-based.
Data set [10] has as its system Aspergillus fumigatus. The data set is described as follows: Antifungal activity against Aspergillus fumigatus ATCC 46645 assessed as decrease in conidia formation at IC50 concentration by UV-vis spectrophotometric analysis. Format: functional, organism-based.
In data set [11] the test system is Aspergillus fumigatus. As to the kind of experiment: Antifungal activity against Aspergillus fumigatus ATCC 46645 assessed as decrease in DHN-melanin content at IC50 concentration incubated for 5 days by UV-vis spectrophotometric analysis. Particulars: time 5.0 day. The class given is functional, organism-based.
The test system of data set [12] is Aspergillus fumigatus. The data set is described as follows: Antibiofilm activity against Aspergillus fumigatus ATCC 46645 at 69.53 to 86.92 uM incubated for 24 hrs by MTT assay. Particulars: dose 69.53-86.92 µM. Format: functional, organism-based.
In data set [13] the test system is Aspergillus fumigatus. The data set is described as follows: Antibiofilm activity against Aspergillus fumigatus ATCC 46645 assessed as absence of ECM on hyphae at 69.53 to 86.92 uM. Format: functional, organism-based. Particulars: dose 69.53-86.92 µM.
The subject of data set [14] is Aspergillus fumigatus. The data set is described as follows: Antibiofilm activity against Aspergillus fumigatus ATCC 46645 at 243.60 to 304.5 uM incubated for 24 hrs by MTT assay. Format: functional, organism-based. Particulars: dose 243.6-304.5 µM. Background: Tetrazolium assays rely on reduction of a dye to a coloured formazan, in cell work by metabolically active cells.

The test system of data set [15] is Aspergillus fumigatus. As to the kind of experiment: Antibiofilm activity against Aspergillus fumigatus ATCC 46645 assessed as absence of ECM on hyphae at 243.60 to 304.5 uM. The class given is functional, organism-based. Particulars: dose 243.6-304.5 µM.

As a reminder, the IC50 is the point on the concentration scale where inhibition reaches its midpoint. As usually defined, the MIC is the least concentration at which growth counts as inhibited. Regarding `C=CCc1ccc(OCc2cn([C@@H]3O[C@H](COC(C)=O)[C@@H](O[C@H]4O[C@H](COC(C)=O)[C@@H](OC(C)=O)[C@H](OC(C)=O)[C@H]4OC(C)=O)[C@H](OC(C)=O)[C@H]3OC(C)=O)nn2)c(OC)c1`, the IC50 in the data set with Aspergillus fumigatus [1] is 14.5 µM. Moreover, the minimal inhibitory concentration (MIC) in the data set on Aspergillus fumigatus [2] was greater than 20 µM.
For `C#CCOc1ccc(CCC)cc1OC`, in that order: greater than 25 µM and greater than 20 µM.
The CC50 is the concentration that lowers cell viability or growth by half. In the case of `C[C@@H]1[C@H](O)[C@@H](C)/C=C/C=C/C=C/C=C/C=C/C=C/C=C/[C@H](O[C@@H]2O[C@H](C)[C@@H](O)[C@H](N)[C@@H]2O)C[C@@H]2O[C@](O)(C[C@@H](O)C[C@@H](O)[C@H](O)CC[C@@H](O)C[C@@H](O)CC(=O)O[C@H]1C)C[C@H](O)[C@H]2C(=O)O` [AMPHOTERICIN B], the concentration for half-maximal inhibition (IC50) in the data set on Aspergillus fumigatus [1] was found to be 1.08 µM. For the same compound, the MIC with Aspergillus fumigatus [2] is 0.216 µM (≈ 0.2 µg/mL). In addition, the CC50 in [3] worked out at 5.4 µM. The Activity in the data set on Aspergillus fumigatus [4] is 1.126.
`C/C=C/c1ccc(OCc2cn([C@@H]3O[C@H](COC(C)=O)[C@@H](O[C@H]4O[C@H](COC(C)=O)[C@@H](OC(C)=O)[C@H](OC(C)=O)[C@H]4OC(C)=O)[C@H](OC(C)=O)[C@H]3OC(C)=O)nn2)c(OC)c1`: the IC50 with Aspergillus fumigatus [1] was 14.5 µM. For the same compound, the MIC in the data set on Aspergillus fumigatus [2] is greater than 20 µM.
Turning to `CCCc1ccc(OCc2cn([C@@H]3O[C@H](CO)[C@H](O)[C@H](O)[C@@H]3O)nn2)c(OC)c1`, the half-inhibitory concentration (IC50) in the data set with Aspergillus fumigatus [1] was greater than 25 µM. In the data set on Aspergillus fumigatus [2], the MIC was greater than 20 µM.
For `COc1cc(C[C@H](O)CO)ccc1O[Si](C)(C)C(C)(C)C`, the IC50 in the data set with Aspergillus fumigatus [1] is greater than 25 µM. Besides, the MIC in the data set with Aspergillus fumigatus [2] was greater than 20 µM.
`C/C=C/c1ccc(O)c(OC)c1`: the IC50 in the data set with Aspergillus fumigatus [1] stood at 1900 µM. The minimal inhibitory concentration (MIC) in the data set with Aspergillus fumigatus [2] came to 3800 µM (≈ 624 µg/mL). Further, the Activity in the data set on Aspergillus fumigatus [4] worked out at 0.399. Also, the outcome in the data set on Aspergillus fumigatus [5], in the data set with Aspergillus fumigatus [6], with Aspergillus fumigatus [7] and in the data set with Cell membrane was Active.
For `C#CCOc1ccc(CC=C)cc1OC`, the IC50 in the data set with Aspergillus fumigatus [1] was greater than 25 µM. Besides, the MIC with Aspergillus fumigatus [2] was greater than 20 µM.
In the same order, the values of `CCCc1ccc(OCc2cn(C[C@@H](O)Cc3ccc(O[Si](C)(C)C(C)(C)C)c(OC)c3)nn2)c(OC)c1` are greater than 25 µM and greater than 20 µM.
On to `C/C=C/c1ccc(OCc2cn([C@@H]3O[C@H](COC(C)=O)[C@@H](OC(C)=O)[C@H](OC(C)=O)[C@H]3OC(C)=O)nn2)c(OC)c1`, for which, in the data set with Aspergillus fumigatus [1], the IC50 stood at 21.7 µM. Further, the minimal inhibitory concentration (MIC) in the data set with Aspergillus fumigatus [2] is greater than 20 µM.
In the same order, the values of `C/C=C/c1ccc(OCc2cn([C@@H]3O[C@H](COC(C)=O)[C@H](OC(C)=O)[C@H](OC(C)=O)[C@H]3OC(C)=O)nn2)c(OC)c1` are 10.9 µM and greater than 20 µM.
For `C/C=C/c1ccc(OCc2cn(C[C@@H](O)Cc3ccc(O[Si](C)(C)C(C)(C)C)c(OC)c3)nn2)c(OC)c1`, in that order: greater than 25 µM and greater than 20 µM.
For `C#CCOc1ccc(/C=C/C)cc1OC`, in that order: greater than 25 µM and greater than 20 µM.
On to `C/C=C/c1ccc(OCc2cn([C@@H]3O[C@H](COC(C)=O)[C@@H](O[C@@H]4O[C@H](COC(C)=O)[C@H](OC(C)=O)[C@H](OC(C)=O)[C@H]4OC(C)=O)[C@H](OC(C)=O)[C@H]3OC(C)=O)nn2)c(OC)c1`, for which the IC50 in the data set with Aspergillus fumigatus [1] was found to be 14.5 µM. The MIC with Aspergillus fumigatus [2] is greater than 20 µM.
In the same order, the values of `C=CCc1ccc(O)c(OC)c1` [EUGENOL] are 1900 µM and 3800 µM (≈ 624 µg/mL).
In the same order, the values of `COc1cc(C[C@H](O)CN=[N+]=[N-])ccc1O[Si](C)(C)C(C)(C)C` are greater than 25 µM and greater than 20 µM.
In the same order, the values of `C/C=C/c1ccc(OCc2cn(C3O[C@@H](C)[C@H](OC(C)=O)[C@@H](OC(C)=O)[C@H]3OC(C)=O)nn2)c(OC)c1` (some centres not stated) are 12.1 µM and greater than 20 µM.
In the case of `CCCc1ccc(OCc2cn([C@@H]3O[C@H](COC(C)=O)[C@@H](OC(C)=O)[C@H](OC(C)=O)[C@H]3OC(C)=O)nn2)c(OC)c1`, the half-inhibitory concentration (IC50) in the data set with Aspergillus fumigatus [1] is greater than 25 µM. For the same compound, the minimal inhibitory concentration (MIC) in the data set with Aspergillus fumigatus [2] is greater than 20 µM.
For `C=CCc1ccc(OCc2cn(C[C@@H](O)Cc3ccc(O[Si](C)(C)C(C)(C)C)c(OC)c3)nn2)c(OC)c1`, in that order: greater than 25 µM and greater than 20 µM.
As for `C=CCc1ccc(O[Si](C)(C)C(C)(C)C)c(OC)c1`, the half-maximal inhibitory concentration (IC50) with Aspergillus fumigatus [1] is greater than 25 µM. Besides, the minimum inhibitory concentration (MIC) in the data set on Aspergillus fumigatus [2] is greater than 20 µM.
As for `C=CCc1ccc(OCc2cn([C@@H]3O[C@H](COC(C)=O)[C@H](OC(C)=O)[C@H](OC(C)=O)[C@H]3OC(C)=O)nn2)c(OC)c1`, the concentration for half-maximal inhibition (IC50) in the data set with Aspergillus fumigatus [1] is 10.9 µM. Also, the MIC in the data set with Aspergillus fumigatus [2] was greater than 20 µM.
Turning to `C=CCc1ccc(OCc2cn([C@@H]3O[C@H](COC(C)=O)[C@@H](OC(C)=O)[C@H](OC(C)=O)[C@H]3OC(C)=O)nn2)c(OC)c1`, the selectivity ratio in [8] was determined as 8.01. The CC50 at 24 h in [9] stood at 43.5 µM. Also, the half-inhibitory concentration (IC50) in the data set with Aspergillus fumigatus [1] worked out at 5.42 µM. In addition, in the data set with Aspergillus fumigatus [2], the MIC was 10.9 µM (≈ 6.25 µg/mL). The outcome in the data set on Aspergillus fumigatus [10], in the data set on Aspergillus fumigatus [11], in the data set on Aspergillus fumigatus [5], with Aspergillus fumigatus [6], in the data set with Aspergillus fumigatus [7] and with Cell membrane was Active. The result in the data set on Aspergillus fumigatus [12] and in the data set with Aspergillus fumigatus [13] was Active. For the same compound, the Activity with Aspergillus fumigatus [4] was 0.295.
Turning to `CCCc1ccc(O)c(OC)c1`, in data set [8], the selectivity ratio was 16. The half-maximal cytotoxic concentration (CC50) at 24 h in data set [9] turned out to be 150 µM. The IC50 in the data set with Aspergillus fumigatus [1] worked out at 9.39 µM. For the same compound, the MIC in the data set on Aspergillus fumigatus [2] stood at 15.5 µM (≈ 2.58 µg/mL). Besides, the outcome in the data set with Aspergillus fumigatus [10], in the data set with Aspergillus fumigatus [11], with Aspergillus fumigatus [5], in the data set on Aspergillus fumigatus [6], with Aspergillus fumigatus [7] and in the data set with Cell membrane was Active. Further, the result in the data set with Aspergillus fumigatus [14] and in the data set with Aspergillus fumigatus [15] was Active. The Activity in the data set on Aspergillus fumigatus [4] is on record as 0.176.
For the compound `C/C=C/c1ccc(OCc2cn([C@@H]3O[C@H](COC(=O)c4ccccc4)[C@H](OC(=O)c4ccccc4)[C@H](OC(=O)c4ccccc4)[C@H]3OC(=O)c3ccccc3)nn2)c(OC)c1`, the IC50 in the data set with Aspergillus fumigatus [1] was determined as 15.2 µM. For the same compound, the MIC with Aspergillus fumigatus [2] was greater than 20 µM.
`C=CCc1ccc(OCc2cn([C@@H]3O[C@H](COC(C)=O)[C@@H](O[C@@H]4O[C@H](COC(C)=O)[C@H](OC(C)=O)[C@H](OC(C)=O)[C@H]4OC(C)=O)[C@H](OC(C)=O)[C@H]3OC(C)=O)nn2)c(OC)c1`: the IC50 in the data set on Aspergillus fumigatus [1] is 14.5 µM. The minimal inhibitory concentration (MIC) in the data set on Aspergillus fumigatus [2] is greater than 20 µM.
On to `CCC(C)n1ncn(-c2ccc(N3CCN(c4ccc(OCC5COC(Cn6cncn6)(c6ccc(Cl)cc6Cl)O5)cc4)CC3)cc2)c1=O` (configuration not stated) [ITRACONAZOLE], for which the MIC with Aspergillus fumigatus [2] was 0.552 µM (≈ 0.39 µg/mL).
As for `C=CCc1ccc(OCc2cn([C@@H]3O[C@H](CO)[C@@H](O)[C@H](O)[C@H]3O)nn2)c(OC)c1`, in the data set with Aspergillus fumigatus [1], the IC50 was greater than 25 µM. Further, in the data set on Aspergillus fumigatus [2], the MIC is greater than 20 µM.
